Some test systems named below: HL-60(TB) leukemia; HOP-62 NSCLC; IGROV1 ovarian; OVCAR-8 ovarian; RPMI-8226 leukemia; RXF 393 renal; SK-MEL-2 melanoma; SK-MEL-5 melanoma; SW-620 colon; UACC-257 melanoma.
Common to all, as to assay: NCI-60 cell line screen, 48 h

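1) Cells in 96-well plates. 2) Compound, 48 h, 5 concentrations. 3) Linear interpolation between surrounding doses. 4) Unreached endpoint = highest concentration. GI50 marks 50% less growth. At the TGI there is no net growth.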

For `O=CN1N=C(c2cccc(Nc3ccnc4cc(Cl)ccc34)c2)CC1c1ccc(Cl)cc1` (stereo not drawn), the GI50 was 1.1 µM in the experiment on HL-60(TB) leukemia; 1.91 µM in the experiment with HOP-62 NSCLC; 0.757 µM in the experiment on IGROV1 ovarian; 3.8 µM in the experiment with OVCAR-8 ovarian; 2.45 µM in the experiment on RPMI-8226 leukemia; 3.08 µM in the experiment with RXF 393 renal. Also, the GI50 was 2.05 µM with SK-MEL-2 melanoma, 1.86 µM with SK-MEL-5 melanoma and 0.557 µM in the experiment with SW-620 colon. Moreover, the TGI is 3.81 µM in the experiment on HL-60(TB) leukemia; greater than 100 µM with HOP-62 NSCLC; greater than 100 µM in the experiment with IGROV1 ovarian; greater than 100 µM in the experiment on OVCAR-8 ovarian; greater than 100 µM in the experiment on RPMI-8226 leukemia; greater than 100 µM in the experiment on RXF 393 renal. Further, the TGI is greater than 100 µM with SK-MEL-2 melanoma, 10.6 µM with SK-MEL-5 melanoma and greater than 100 µM in the experiment with SW-620 colon.
As to `C1=CC2CCC1CN2CCC1CNc2ccccc21` (stereo not drawn), the TGI in the experiment on HL-60(TB) leukemia, in the experiment with HOP-62 NSCLC, with IGROV1 ovarian, with OVCAR-8 ovarian, in the experiment with RPMI-8226 leukemia and in the experiment with RXF 393 renal was greater than 100 µM in each case. The TGI in the experiment on SK-MEL-2 melanoma, with SW-620 colon and with UACC-257 melanoma was greater than 100 µM throughout.
Turning to `CCOc1ccc2cc(-c3nn(CC4CCNCC4)c4ncnc(N)c34)ccc2c1`, the GI50 with HL-60(TB) leukemia is 14.7 µM; with HOP-62 NSCLC it was 16.3 µM; in the experiment with IGROV1 ovarian it was 11.7 µM; in the experiment on RPMI-8226 leukemia, 14 µM; with RXF 393 renal it was 3.96 µM; with SK-MEL-2 melanoma, 15.8 µM. In addition, the GI50 was 16.4 µM with SK-MEL-5 melanoma, 15.2 µM in the experiment on SW-620 colon and 16.8 µM in the experiment with UACC-257 melanoma. The TGI with HL-60(TB) leukemia is 32.6 µM; in the experiment with HOP-62 NSCLC, 39.4 µM; with IGROV1 ovarian it was 27.8 µM; in the experiment on RPMI-8226 leukemia it was 34.6 µM; in the experiment with RXF 393 renal it was 17.1 µM; in the experiment on SK-MEL-2 melanoma, 29.8 µM. Moreover, the values for the TGI with SK-MEL-5 melanoma, in the experiment with SW-620 colon and in the experiment with UACC-257 melanoma were 29.9 µM, 31.4 µM and 31.1 µM, respectively.
In the case of `COc1ccc2c(c1)C(=O)c1c-2c(OCCN(C)C)nc2cc(OC)c(OC)cc12`, the GI50 was 51.6 µM in the experiment with HL-60(TB) leukemia; 1.32 µM with HOP-62 NSCLC; 1.62 µM in the experiment with OVCAR-8 ovarian; 1.26 µM with RPMI-8226 leukemia; 4.48 µM with RXF 393 renal; greater than 100 µM in the experiment with SK-MEL-2 melanoma. Further, the figures for the GI50 with SK-MEL-5 melanoma, in the experiment on SW-620 colon and in the experiment with UACC-257 melanoma were 32.1 µM, 0.476 µM and greater than 100 µM, respectively. The TGI is greater than 100 µM with HL-60(TB) leukemia; 32 µM with HOP-62 NSCLC; greater than 100 µM in the experiment with OVCAR-8 ovarian; 5.23 µM in the experiment with RPMI-8226 leukemia; 18.6 µM in the experiment on RXF 393 renal; greater than 100 µM in the experiment with SK-MEL-2 melanoma. In addition, the TGI in the experiment with SK-MEL-5 melanoma is greater than 100 µM; in the experiment on SW-620 colon it was 16.9 µM; in the experiment with UACC-257 melanoma, greater than 100 µM.
Consider `COc1ccc(C2=Nn3c(nnc3-n3nc(C)cc3C)SC2)cc1`, for which the GI50 was 0.0358 µM in the experiment with HL-60(TB) leukemia; 0.0839 µM in the experiment on HOP-62 NSCLC; 0.107 µM in the experiment with IGROV1 ovarian; 0.0691 µM with OVCAR-8 ovarian; 0.0605 µM with RPMI-8226 leukemia; 0.0599 µM in the experiment with RXF 393 renal. The GI50 with SK-MEL-2 melanoma was 0.0599 µM; with SK-MEL-5 melanoma it was 0.0489 µM; with SW-620 colon it was 0.0423 µM. In addition, the TGI in the experiment on HL-60(TB) leukemia is 0.482 µM; with HOP-62 NSCLC it was greater than 100 µM; in the experiment on IGROV1 ovarian, greater than 100 µM; with OVCAR-8 ovarian it was greater than 100 µM; in the experiment with RPMI-8226 leukemia it was greater than 70.3 µM; with RXF 393 renal it was greater than 100 µM. The TGI in the experiment with SK-MEL-2 melanoma is greater than 100 µM; in the experiment on SK-MEL-5 melanoma it was 4.23 µM; with SW-620 colon, greater than 100 µM.
In the case of `COc1ccc(-c2cc(/C=C/C(=O)c3ccc(N)cc3)[nH]n2)cc1`, the GI50 in the experiment with HL-60(TB) leukemia is 1.43 µM; in the experiment on HOP-62 NSCLC it was 2.8 µM; with IGROV1 ovarian, 2.27 µM; in the experiment on OVCAR-8 ovarian, 2.44 µM; with RPMI-8226 leukemia, 0.6 µM; in the experiment on RXF 393 renal it was 1.67 µM. The GI50 was 2.71 µM in the experiment with SK-MEL-5 melanoma, 1.69 µM in the experiment with SW-620 colon and 1.9 µM with UACC-257 melanoma. For the same molecule, the TGI in the experiment on HL-60(TB) leukemia turned out to be 7.71 µM; with HOP-62 NSCLC, 7.49 µM; with IGROV1 ovarian, 6.45 µM; with OVCAR-8 ovarian, 15.4 µM; in the experiment with RPMI-8226 leukemia, 3.22 µM; with RXF 393 renal, 4.19 µM. The results for the TGI with SK-MEL-5 melanoma, in the experiment on SW-620 colon and with UACC-257 melanoma were 9.25 µM, 5.41 µM and 4.21 µM, respectively.
With `Cn1cnnc1[S-].[Au+].c1ccc([PH+](c2ccccc2)c2ccccc2)cc1`, the GI50 is 1.48 µM in the experiment on HL-60(TB) leukemia; 1.69 µM with RPMI-8226 leukemia; 1.42 µM in the experiment with RXF 393 renal; 1.6 µM with SK-MEL-2 melanoma; 1.46 µM in the experiment on SK-MEL-5 melanoma; 1.35 µM in the experiment on UACC-257 melanoma. Moreover, the TGI with HL-60(TB) leukemia amounted to 4.44 µM; in the experiment on RPMI-8226 leukemia, 5.39 µM; in the experiment with RXF 393 renal, 2.8 µM; in the experiment with SK-MEL-2 melanoma it was 3.17 µM; in the experiment on SK-MEL-5 melanoma, 2.91 µM; in the experiment on UACC-257 melanoma it was 2.94 µM.
As to `COc1ccc(C)cc1NC(=S)C#N`, the TGI in the experiment on HL-60(TB) leukemia, in the experiment on HOP-62 NSCLC, in the experiment with OVCAR-8 ovarian, in the experiment with RPMI-8226 leukemia, in the experiment on RXF 393 renal and with SK-MEL-2 melanoma was greater than 100 µM throughout. Also, the TGI with SK-MEL-5 melanoma, with SW-620 colon and with UACC-257 melanoma was greater than 100 µM each time.
Take `CCCCCC[C@H]1C(=O)O[C@H](C)[C@H](NC(=O)c2cccc(NC=O)c2OC)C(=O)O[C@@H](C)[C@@H]1OC(=O)CCC` (tested in a mixture with another compound): the GI50 was 4.68 µM in the experiment on HL-60(TB) leukemia; 16.9 µM in the experiment on HOP-62 NSCLC; 12.1 µM in the experiment on OVCAR-8 ovarian; 12.2 µM in the experiment on RPMI-8226 leukemia; 15.3 µM in the experiment on RXF 393 renal; 18.1 µM in the experiment on SK-MEL-2 melanoma. The GI50 in the experiment on SK-MEL-5 melanoma is 3.94 µM; in the experiment on SW-620 colon it was 13 µM; in the experiment with UACC-257 melanoma, 2.81 µM. In addition, the TGI with HL-60(TB) leukemia came out at 19.9 µM; in the experiment with HOP-62 NSCLC, 40.1 µM; in the experiment on OVCAR-8 ovarian, 33.4 µM; in the experiment on RPMI-8226 leukemia it was 37.9 µM; with RXF 393 renal, 32.4 µM; in the experiment on SK-MEL-2 melanoma it was 60.5 µM. Also, the TGI in the experiment on SK-MEL-5 melanoma is 14.5 µM; in the experiment on SW-620 colon it was 72.3 µM; with UACC-257 melanoma, 11.9 µM.

For the origin of these results see PubChem BioAssay (NCI).
